According to US7915402B2, “Antioxidant inflammation modulators: oleanolic acid derivatives with saturation in the C-ring” (Reata Pharmaceuticals, Inc., priority 2008, dated 2011):
Converted amounts (≈) assume the structure as drawn. Where two headings read alike, the source gives them in different places.

How the values were obtained:
[1] = tested on: IFNγ-induced NO production in RAW264.7 macrophages; assay: Suppression of IFNγ-induced NO production (Griess reagent); type: cell-based, mouse; details: Mus musculus; RAW264.7, 20 ng/ml IFNγ 24 h, 2 h pre-treatment
Summary of the method: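 Cells pre-treated with DMSO or compound at various nM concentrations for 2 h, then stimulated with 20 ng/ml recombinant mouse IFNγ for 24 h. Nitrite in medium measured by Griess reagent; viability read by WST-1.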

mice = details: sesame oil, N=4
[2] = Plasma pharmacokinetics after oral dosing in rats; type: in vivo, Sprague Dawley rats; details: SD rats, oral gavage
Procedure: Compound 404-02 reaches high concentrations in the lung and CNS of rats following oral dosing: To assess basic pharmacokinetic parameters following oral dosing, 9 male and 9 female Sprague Dawley (SD) rats were administered 404-02 at 1, 10 or 50 mg/kg doses via oral gavage. Doses were prepared in sesame oil and individualized to body weight on the day of dosing. Blood was drawn at 0, 1, 2, 4, 8 and 24 hours post-dose on days 1 and 15. Blood was collected from the orbital sinus after carbon dioxide/oxygen inhalation for determination of 404-02 plasma concentrations. Plasma was transferred to cryovials and stored at −80° C. until processing and LC-MS/MS analysis. A standard curve was derived for 404-02 in rat plasma, and quantification of experimental results was based on this standard curve.
Pharmacokinetic parameters were obtained using non-compartmental analysis, WinNonlin™ version 5.2.

[3] = CNS and lung tissue concentrations after oral dosing in rats; type: in vivo; details: both sexes, Sprague Dawley, rat, SD rats, oral gavage, day 15, 3 h post-dose
Procedure: To examine tissue concentrations following oral dosing, 5 male and 5 female Sprague Dawley (SD) rats were administered 404-02 at 1, 10, 50 or 150 mg/kg/day via oral gavage. Doses were prepared in sesame oil and individualized to body weight on the day of dosing. Animals were sacrificed 3 hours post-dose on day 15 of study following harvest of brain and lung specimens. Each sample collected was rinsed in 1× isotonic phosphate buffered saline and blotted dry before weighing. Tissue slices were transferred to cryovials and stored at −80° C. until processing and LC-MS/MS analysis. Standard curves were derived for 404-02 in these tissues.

[4] = Aqueous solubility determination (Multiscreen solubility filter plate, UV/vis); type: physicochemical; details: universal aqueous buffer, pH 7.4, aqueous buffer, kinetic from dmso stock, universal aqueous buffer pH 7.4, 90 min, room temperature
Procedure: Aqueous Solubility Determination. The following procedure was used to obtain the aqueous solubility results summarized in Example 8. Step 1. Determination of optimal UV/vis wavelengths and generation of standard curves for a compound of interest: • (1) For eight standard calibration curves (one plate), prepare 34 mL of 50:50 (v:v) universal buffer:acetonitrile in a 50 mL tube. • (2) Using a multichannel pipet, dispense (in μL) the buffer:acetonitrile in a deep well plate as follows:
• (6) Cover plate with lid and shake (200-300 rpm) at room temperature for 20 minutes. • (7) Mix all wells by pipetting up and down 10 times. • (8) Transfer 120 μL from each well to a UV transparent plate. Cover and shake for 3-5 minutes. Remove any bubbles in the wells using a pipet. • (9) Read from 220 nm to 500 nm at 10 nm increments on a spectrophotometer (e.g., SpectraMax®).
Step 2. Compound Solubility Testing Procedures Using the Millipore™ Multiscreen® Solubility Filter Plate.
Universal Aqueous Buffer: • (a) To prepare 500 mL of universal buffer, add the following: 250 mL Nanopure water; 1.36 mL (45 mM) ethanolamine; 3.08 g (45 mM) potassium dihydrogen phosphate; 2.21 g (45 mM) potassium acetate; thoroughly mix. • (b) Adjust pH to 7.4 with HCl and q.s. to 500 mL with 0.15 M KCl. • (c) Filter to remove particulates and reduce bacterial growth. • (d) Store at 4° C. in the dark.
Solubility Protocol: • (a) Add 285 μL of Universal Aqueous Buffer to desired wells of the Millipore™ Multiscreen® Solubility filter plate. • (b) Add 15 μL of 10 mM compound in DMSO to the appropriate wells. Add 15 μL of 100% DMSO only to 6 wells of the filter plate for blanks. • (c) Using a multichannel pipet, mix wells by pipetting up and down 10 times. Be careful not to touch the filters in the plate with the tips. • (d) Cover and gently shake (200-300 rpm) filter plate for 90 minutes at room temperature. • (e) Vacuum filter the aqueous solution from the Multiscreen® solubility filter plate into a polypropylene V-bottom plate. • (f) Transfer 60 μL of filtrate to a UV transparent plate (Greiner® UV-Star Analysis Plate). • (g) Add 60 μL of acetonitrile to each well and mix by pipetting up and down 10 times. • (h) Cover and gently shake for 3-5 minutes. Remove any bubbles with a pipet. • (i) Measure the absorbance of each well in the plate on the spectrophotometer (UV/vis) at the desired wavelength. For compounds in a plate with different absorbance peaks, set the spectrophotometer to read a spectrum (e.g., from 220 nm to 460 nm). • (j) Identify concentration using measured absorbance for each compound and the predetermined standard curve (see Step 1).

[5] = 1 mg/kg/day, day 1, n=9/sex/dose level
[6] = 1 mg/kg/day, day 15, n=9/sex/dose level
[7] = 10 mg/kg/day, day 1, n=9/sex/dose level
[8] = 10 mg/kg/day, day 15, n=9/sex/dose level
[9] = 50 mg/kg/day, day 1, n=9/sex/dose level
[10] = 50 mg/kg/day, day 15, n=9/sex/dose level

CC1(C)CC[C@]2(C(=O)NCC(F)(F)F)CC[C@]3(C)[C@H](C(=O)C[C@@H]4[C@@]5(C)C=C(C#N)C(=O)C(C)(C)[C@@H]5CC[C@]43C)[C@@H]2C1 [Compound 63102, (4aS,6aR,6bR,8aR,12aR,12bR,14aR,14bS)-11-cyano-2,2,6a,6b,9,9,12a-heptamethyl-10,14-dioxo-N-(2,2,2-trifluoroethyl)-1,2,3,4,4a,5,6,6a,6b,7,8,8a,9,10,12a,12b,13,14,14a,14b-icosahydropicene-4a-carboxamide]
IC50 [1]: ~45 nM
Number of Deaths (mice; oral gavage QDx14, 10 mg/kg): 0
Number of Deaths (mice; oral gavage QDx14, 50 mg/kg): 0
Number of Deaths (mice; oral gavage QDx14, 100 mg/kg): 0
Number of Deaths (mice; oral gavage QDx14, 250 mg/kg): 0
Mean Maximum 404-02 Plasma Concentration (nM) ± SEM [2, 5]: 5.7 ± 1.1 nM
Mean Maximum 404-02 Plasma Concentration (ng/mL) ± SEM [2, 5]: 3.3 ± 0.65 ng/mL
Mean Maximum 404-02 Plasma Concentration (nM) ± SEM [2, 6]: 11.0 ± 1.6 nM
Mean Maximum 404-02 Plasma Concentration (ng/mL) ± SEM [2, 6]: 6.3 ± 0.9 ng/mL
Mean Maximum 404-02 Plasma Concentration (nM) ± SEM [2, 7]: 116 ± 28.7 nM
Mean Maximum 404-02 Plasma Concentration (ng/mL) ± SEM [2, 7]: 66 ± 16.5 ng/mL
Mean Maximum 404-02 Plasma Concentration (nM) ± SEM [2, 8]: 210 ± 42.3 nM
Mean Maximum 404-02 Plasma Concentration (ng/mL) ± SEM [2, 8]: 144 ± 24.3 ng/mL
Mean Maximum 404-02 Plasma Concentration (nM) ± SEM [2, 9]: 1241 ± 171 nM
Mean Maximum 404-02 Plasma Concentration (ng/mL) ± SEM [2, 9]: 713 ± 98.2 ng/mL
Mean Maximum 404-02 Plasma Concentration (nM) ± SEM [2, 10]: 1966 ± 199 nM
Mean Maximum 404-02 Plasma Concentration (ng/mL) ± SEM [2, 10]: 1129 ± 114 ng/mL
concentration at 3 h ([3]; brain (CNS tissue), 1 mg/kg/day, read-out: Mean 404-02 CNS Tissue Concentration (nM) ± SEM): 51 ± 11.8 nM
concentration at 3 h ([3]; brain (CNS tissue), 1 mg/kg/day, read-out: Mean 404-02 CNS Tissue Content (ng/g = ng/mL) ± SEM): 29 ± 6.8 ng/g
concentration at 3 h ([3]; brain (CNS tissue), 10 mg/kg/day, read-out: Mean 404-02 CNS Tissue Concentration (nM) ± SEM): 733 ± 173 nM
concentration at 3 h ([3]; brain (CNS tissue), 10 mg/kg/day, read-out: Mean 404-02 CNS Tissue Content (ng/g = ng/mL) ± SEM): 421 ± 99 ng/g
concentration at 3 h ([3]; brain (CNS tissue), 50 mg/kg/day, read-out: Mean 404-02 CNS Tissue Concentration (nM) ± SEM): 1310 ± 188 nM
concentration at 3 h ([3]; brain (CNS tissue), 50 mg/kg/day, read-out: Mean 404-02 CNS Tissue Content (ng/g = ng/mL) ± SEM): 750 ± 108 ng/g
concentration at 3 h ([3]; brain (CNS tissue), 150 mg/kg/day, read-out: Mean 404-02 CNS Tissue Concentration (nM) ± SEM): 1110 ± 143 nM
concentration at 3 h ([3]; brain (CNS tissue), 150 mg/kg/day, read-out: Mean 404-02 CNS Tissue Content (ng/g = ng/mL) ± SEM): 640 ± 82 ng/g
concentration at 3 h ([3]; lung, 1 mg/kg/day, read-out: Mean dh404 Lung Tissue Concentration (nM) ± SEM): 972 ± 215 nM
concentration at 3 h ([3]; lung, 1 mg/kg/day, read-out: Mean dh404 Lung Tissue Content (ng/g = ng/mL) ± SEM): 558 ± 123 ng/g
concentration at 3 h ([3]; lung, 10 mg/kg/day, read-out: Mean dh404 Lung Tissue Concentration (nM) ± SEM): 7020 ± 1620 nM
concentration at 3 h ([3]; lung, 10 mg/kg/day, read-out: Mean dh404 Lung Tissue Content (ng/g = ng/mL) ± SEM): 4030 ± 928 ng/g
concentration at 3 h ([3]; lung, 50 mg/kg/day, read-out: Mean dh404 Lung Tissue Concentration (nM) ± SEM): 12500 ± 2130 nM
concentration at 3 h ([3]; lung, 50 mg/kg/day, read-out: Mean dh404 Lung Tissue Content (ng/g = ng/mL) ± SEM): 7160 ± 1220 ng/g
concentration at 3 h ([3]; lung, 150 mg/kg/day, read-out: Mean dh404 Lung Tissue Concentration (nM) ± SEM): 16900 ± 2860 nM
concentration at 3 h ([3]; lung, 150 mg/kg/day, read-out: Mean dh404 Lung Tissue Content (ng/g = ng/mL) ± SEM): 9720 ± 1640 ng/g
solubility at 90 min [4]: 0.06 µM (≈ 0.0345 µg/mL)
